In patent US10463710B2, “Short synthetic peptide for the treatment and/or prophylaxis of autoimmune and inflammatory disorders” (MacKay Memorial Hospital, priority 2015, dated 2019):
“Also recorded” adds a separate entry of the source. Ends that are not written are not given here.

Legend:
[1] = system: Raw264.7 macrophage cells; test: in vitro; assay type: cell-based, murine; conditions: Example 1 results
in vitro = assay type: cell-based, murine; conditions: mouse

Row | Compound | bioactivity / inhibitory activity relative to 7-mer (in words) [1] | viability at 24 h, 20 μM (in vitro; Raw264.7 cell viability) | viability at 24 h, 20 μM (in vitro; Rar264.7 cell viability)
1 | CC(=O)N[C@@H](Cc1ccccc1)C(=O)N[C@@H](CC(C)C)C(=O)N[C@@H](Cc1ccc(O)cc1)C(=O)N[C@@H](CCCNC(=N)N)C(=O)N[C@H](C(=O)N[C@@H](CCCNC(=N)N)C(=O)N[C@@H](CO)C(N)=O)C(C)C [7-mer (D→F), NH2-Phe-Leu-Tyr-Arg-Val-Arg-Ser-COOH] | could sustain 7-mer bioactivity, only partly; also recorded: relatively the same bioactivity that is similar to the 7-mer | 61.9 ± 4.91% | –
2 | CC(=O)N[C@@H](CC(C)C)C(=O)N[C@@H](CC(C)C)C(=O)N[C@@H](Cc1ccc(O)cc1)C(=O)N[C@@H](CCCNC(=N)N)C(=O)N[C@H](C(=O)N[C@@H](CCCNC(=N)N)C(=O)N[C@@H](CO)C(N)=O)C(C)C [7-mer (D→L), NH2-Leu-Leu-Tyr-Arg-Val-Arg-Ser-COOH] | could sustain 7-mer bioactivity, only partly; also recorded: relatively the same bioactivity that is similar to the 7-mer | 57.6 ± 2.65% | –
3 | CC(=O)N[C@H](CC(=O)O)C(=O)N[C@@H](CC(C)C)C(=O)N[C@@H](Cc1ccc(O)cc1)C(=O)N[C@@H](CCCNC(=N)N)C(=O)N[C@H](C(=O)N[C@@H](CCCNC(=N)N)C(=O)N[C@@H](CO)C(N)=O)C(C)C [7-mer DD, NH2-(D-Asp)-Leu-Tyr-Arg-Val-Arg-Ser-COOH] | – | – | 52.1 ± 1.45%
4 | CC(=O)N[C@@H](CC(=O)O)C(=O)N[C@@H](CC(C)C)C(=O)N[C@@H](Cc1ccc(O)cc1)C(=O)N[C@@H](CCCNC(=N)N)C(=O)N[C@@H](C(=O)N[C@@H](CCCNC(=N)N)C(=O)N[C@@H](CO)C(N)=O)C(C)C [7-mer DV, NH2-Asp-Leu-Tyr-Arg-(D-Val)-Arg-Ser-COOH] | – | – | 57.9 ± 6.2%
5 | CC(=O)N[C@@H](CC(=O)O)C(=O)N[C@@H](CC(C)C)C(=O)N[C@@H](Cc1ccc(O)cc1)C(=O)N[C@@H](CCCNC(=N)N)C(=O)N[C@H](C(=O)N[C@@H](C)C(=O)N[C@@H](CO)C(N)=O)C(C)C [7-mer R2a, NH2-Asp-Leu-Tyr-Arg-Val-Ala-Ser-COOH] | – | 94.6 ± 1.65% | –
6 | CC(=O)N[C@@H](CC(=O)O)C(=O)N[C@@H](CC(C)C)C(=O)N[C@@H](Cc1ccc(O)cc1)C(=O)N[C@@H](C)C(=O)N[C@H](C(=O)N[C@@H](CCCNC(=N)N)C(=O)N[C@@H](CO)C(N)=O)C(C)C [7-mer Ra, NH2-Asp-Leu-Tyr-Ala-Val-Arg-Ser-COOH] | – | 99.5 ± 1.51% | –
7 | CC(=O)N[C@@H](CC(=O)O)C(=O)N[C@@H](CC(C)C)C(=O)N[C@@H](Cc1ccc(O)cc1)C(=O)N[C@@H](CCCNC(=N)N)C(=O)N[C@H](C(=O)N[C@@H](CCCNC(=N)N)C(=O)N[C@@H](C)C(N)=O)C(C)C [7-mer Sa, NH2-Asp-Leu-Tyr-Arg-Val-Arg-Ala-COOH] | – | 93.1 ± 2.47% | –
8 | CC(=O)N[C@@H](CC(=O)O)C(=O)N[C@@H](CC(C)C)C(=O)N[C@@H](Cc1ccc(O)cc1)C(=O)N[C@@H](CCCNC(=N)N)C(=O)N[C@@H](C)C(=O)N[C@@H](CCCNC(=N)N)C(=O)N[C@@H](CO)C(N)=O [7-mer Va, NH2-Asp-Leu-Tyr-Arg-Ala-Arg-Ser-COOH] | – | 97.7 ± 0.6% | –
9 | CC(=O)N[C@@H](CC(=O)O)C(=O)N[C@@H](CC(C)C)C(=O)N[C@@H](C)C(=O)N[C@@H](CCCNC(=N)N)C(=O)N[C@H](C(=O)N[C@@H](CCCNC(=N)N)C(=O)N[C@@H](CO)C(N)=O)C(C)C [7-mer Ya, NH2-Asp-Leu-Ala-Arg-Val-Arg-Ser-COOH] | – | 97.6 ± 0.56% | –
10 | NH2-Asp-Leu-Tyr-Arg-Val-Arg-COOH (DLYRVR; not fully specified (N-terminus, C-terminus); printed as NH2-Asp-Leu-Tyr-Arg-Val-Arg-COOH) [control peptide, serine residue of the 7-mer deleted, reference compound] | does not possess any biological function | – | –
